Measurements: ChEMBL document CHEMBL4507259 (2021)

Key:
[1] = target: 5-hydroxytryptamine receptor 1D (Homo sapiens) (UniProt P28221); details: Compound concentration 10.0 uM
[2] = target: Leukocyte tyrosine kinase receptor (Homo sapiens) (UniProt P29376); details: Compound concentration 1000.0 nM
[3] = target: Ephrin type-A receptor 5 (Homo sapiens) (UniProt P54756); details: Compound concentration 1000.0 nM
[4] = target: Cyclin-dependent kinase 17 (Homo sapiens) (UniProt Q00537); details: Compound concentration 1000.0 nM
[5] = target: Ribosomal protein S6 kinase beta-1 (Homo sapiens) (UniProt P23443); details: Compound concentration 1000.0 nM
[6] = target: cAMP-dependent protein kinase catalytic subunit PRKX (Homo sapiens) (UniProt P51817); details: Compound concentration 1000.0 nM
[7] = target: Microtubule-associated serine/threonine-protein kinase 1 (Homo sapiens) (UniProt Q9Y2H9); details: Compound concentration 1000.0 nM
[8] = target: T1, Muscarinic acetylcholine receptor M5 (Homo sapiens) (UniProt P08912); details: Compound concentration 10.0 uM
T1 sequence (whole entry): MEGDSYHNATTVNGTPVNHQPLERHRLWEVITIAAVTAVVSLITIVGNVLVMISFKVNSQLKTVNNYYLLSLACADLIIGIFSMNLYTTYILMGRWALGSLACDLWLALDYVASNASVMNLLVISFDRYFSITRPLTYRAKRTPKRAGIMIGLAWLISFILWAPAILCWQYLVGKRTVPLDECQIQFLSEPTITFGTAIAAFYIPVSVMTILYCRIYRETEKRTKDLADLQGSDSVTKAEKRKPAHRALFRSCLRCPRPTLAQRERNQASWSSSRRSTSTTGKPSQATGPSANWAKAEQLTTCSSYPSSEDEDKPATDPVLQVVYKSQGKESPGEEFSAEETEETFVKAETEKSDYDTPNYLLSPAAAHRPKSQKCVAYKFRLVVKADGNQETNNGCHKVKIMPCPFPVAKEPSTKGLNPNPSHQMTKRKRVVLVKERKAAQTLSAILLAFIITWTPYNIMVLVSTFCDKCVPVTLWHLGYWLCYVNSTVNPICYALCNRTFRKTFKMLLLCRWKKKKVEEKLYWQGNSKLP

[9] = target: Myosin-IIIa (Homo sapiens) (UniProt Q8NEV4); details: Compound concentration 1000.0 nM
[10] = target: Cannabinoid receptor 2 (Homo sapiens) (UniProt P34972); assay: CB2 (h) CEREP ligand profiling; details: filed as agonist, Compound concentration 10.0 uM
[11] = target: Cyclin-dependent kinase 11B (Homo sapiens) (UniProt P21127); details: Compound concentration 1000.0 nM
[12] = target: Serine/threonine-protein kinase ULK3 (Homo sapiens) (UniProt Q6PHR2); details: Compound concentration 1000.0 nM
[13] = target: Phosphatidylinositol 4-phosphate 5-kinase type-1 alpha (Homo sapiens) (UniProt Q99755); details: Compound concentration 1000.0 nM
[14] = target: Serine/threonine-protein kinase B-raf (Homo sapiens) (UniProt P15056); details: Compound concentration 1000.0 nM
[15] = target: Vascular endothelial growth factor receptor 1 (Homo sapiens) (UniProt P17948); details: Compound concentration 1000.0 nM
[16] = target: Dual specificity tyrosine-phosphorylation-regulated kinase 2 (Homo sapiens) (UniProt Q92630); details: Compound concentration 1000.0 nM
[17] = target: P2X receptor (Rattus norvegicus) (UniProt P51579+P49653+P51578+Q64663+P47824+P51577+P49654); assay: P2X CEREP ligand profiling; format: protein assay; details: filed as agonist; Compound concentration 10.0 uM
[18] = target: T2, 5-hydroxytryptamine receptor 2C (Homo sapiens) (UniProt P28335); assay: 5-HT2C (h) CEREP ligand profiling; details: filed as antagonist, Compound concentration 10.0 uM
T2 sequence (whole entry): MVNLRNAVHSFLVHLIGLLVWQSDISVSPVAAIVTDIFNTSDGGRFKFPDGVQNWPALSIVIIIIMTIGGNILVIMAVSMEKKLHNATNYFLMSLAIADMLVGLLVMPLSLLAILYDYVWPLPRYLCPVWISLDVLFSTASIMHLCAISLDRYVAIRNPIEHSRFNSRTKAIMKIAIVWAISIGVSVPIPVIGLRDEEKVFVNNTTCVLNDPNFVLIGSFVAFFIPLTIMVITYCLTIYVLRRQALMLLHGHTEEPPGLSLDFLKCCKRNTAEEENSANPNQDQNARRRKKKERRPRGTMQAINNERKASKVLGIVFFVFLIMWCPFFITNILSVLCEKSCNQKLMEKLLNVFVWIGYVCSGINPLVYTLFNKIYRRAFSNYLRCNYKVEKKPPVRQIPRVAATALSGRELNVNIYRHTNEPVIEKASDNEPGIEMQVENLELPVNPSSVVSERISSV

[19] = target: Macrophage colony-stimulating factor 1 receptor (Homo sapiens) (UniProt P07333); details: Compound concentration 1000.0 nM
[20] = target: 3-phosphoinositide-dependent protein kinase 1 (Homo sapiens) (UniProt O15530); details: Compound concentration 1000.0 nM
[21] = target: Ephrin type-B receptor 4 (Homo sapiens) (UniProt P54760); details: Compound concentration 1000.0 nM
[22] = target: cGMP-dependent protein kinase 2 (Homo sapiens) (UniProt Q13237); details: Compound concentration 1000.0 nM
[23] = target: Homeodomain-interacting protein kinase 3 (Homo sapiens) (UniProt Q9H422); details: Compound concentration 1000.0 nM
[24] = target: D(1B) dopamine receptor (Homo sapiens) (UniProt P21918); details: Compound concentration 10.0 uM
[25] = target: Misshapen-like kinase 1 (Homo sapiens) (UniProt Q8N4C8); details: Compound concentration 1000.0 nM
[26] = target: Tyrosine-protein kinase ABL1 (Homo sapiens) (UniProt P00519); details: Compound concentration 1000.0 nM
[27] = target: Sodium-dependent serotonin transporter (Homo sapiens, UniProt P31645); details: Compound concentration 10.0 uM
[28] = target: Serine/threonine-protein kinase MARK1 (Homo sapiens) (UniProt Q9P0L2); details: Compound concentration 1000.0 nM
[29] = target: Platelet-derived growth factor receptor alpha (Homo sapiens) (UniProt P16234); details: Compound concentration 1000.0 nM
[30] = target: Vasopressin V1a receptor (Homo sapiens) (UniProt P37288); assay: V1a (h) CEREP ligand profiling; details: filed as agonist, Compound concentration 10.0 uM
[31] = target: Serine/threonine-protein kinase SIK2 (Homo sapiens) (UniProt Q9H0K1); details: Compound concentration 1000.0 nM

Chain of Serine/threonine-protein kinase B-raf (Homo sapiens) (P15056 whole entry): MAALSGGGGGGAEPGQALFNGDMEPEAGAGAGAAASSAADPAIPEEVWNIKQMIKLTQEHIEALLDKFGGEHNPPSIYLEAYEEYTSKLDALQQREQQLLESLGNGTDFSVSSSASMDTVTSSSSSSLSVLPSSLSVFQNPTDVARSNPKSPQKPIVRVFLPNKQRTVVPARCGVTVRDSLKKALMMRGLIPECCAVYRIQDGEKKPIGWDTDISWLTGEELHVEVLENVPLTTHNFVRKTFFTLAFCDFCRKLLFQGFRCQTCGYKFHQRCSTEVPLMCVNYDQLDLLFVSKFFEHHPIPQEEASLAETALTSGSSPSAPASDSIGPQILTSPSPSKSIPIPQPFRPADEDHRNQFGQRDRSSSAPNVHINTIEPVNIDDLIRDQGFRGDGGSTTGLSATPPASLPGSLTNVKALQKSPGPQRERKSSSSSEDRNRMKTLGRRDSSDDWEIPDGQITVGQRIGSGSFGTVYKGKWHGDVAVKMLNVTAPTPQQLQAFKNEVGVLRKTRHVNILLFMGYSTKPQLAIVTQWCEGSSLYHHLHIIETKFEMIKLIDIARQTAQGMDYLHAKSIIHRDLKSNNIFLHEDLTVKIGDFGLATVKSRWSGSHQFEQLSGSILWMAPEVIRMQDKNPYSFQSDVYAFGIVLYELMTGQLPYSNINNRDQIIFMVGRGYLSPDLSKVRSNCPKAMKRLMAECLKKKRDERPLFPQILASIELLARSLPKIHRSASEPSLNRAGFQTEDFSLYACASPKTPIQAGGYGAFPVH
Chain of cAMP-dependent protein kinase catalytic subunit PRKX (Homo sapiens) (P51817 whole entry): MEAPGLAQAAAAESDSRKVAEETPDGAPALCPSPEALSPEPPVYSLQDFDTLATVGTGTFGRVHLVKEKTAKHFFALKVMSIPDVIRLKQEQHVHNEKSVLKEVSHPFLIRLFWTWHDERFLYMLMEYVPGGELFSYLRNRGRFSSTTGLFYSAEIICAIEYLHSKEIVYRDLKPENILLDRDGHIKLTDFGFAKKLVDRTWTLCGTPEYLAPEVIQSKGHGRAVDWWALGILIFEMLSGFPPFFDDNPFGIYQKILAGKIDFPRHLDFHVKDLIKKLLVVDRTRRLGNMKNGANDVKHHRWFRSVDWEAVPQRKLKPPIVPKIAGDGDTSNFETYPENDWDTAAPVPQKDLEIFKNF
Chain of Misshapen-like kinase 1 (Homo sapiens) (Q8N4C8 whole entry, looked up): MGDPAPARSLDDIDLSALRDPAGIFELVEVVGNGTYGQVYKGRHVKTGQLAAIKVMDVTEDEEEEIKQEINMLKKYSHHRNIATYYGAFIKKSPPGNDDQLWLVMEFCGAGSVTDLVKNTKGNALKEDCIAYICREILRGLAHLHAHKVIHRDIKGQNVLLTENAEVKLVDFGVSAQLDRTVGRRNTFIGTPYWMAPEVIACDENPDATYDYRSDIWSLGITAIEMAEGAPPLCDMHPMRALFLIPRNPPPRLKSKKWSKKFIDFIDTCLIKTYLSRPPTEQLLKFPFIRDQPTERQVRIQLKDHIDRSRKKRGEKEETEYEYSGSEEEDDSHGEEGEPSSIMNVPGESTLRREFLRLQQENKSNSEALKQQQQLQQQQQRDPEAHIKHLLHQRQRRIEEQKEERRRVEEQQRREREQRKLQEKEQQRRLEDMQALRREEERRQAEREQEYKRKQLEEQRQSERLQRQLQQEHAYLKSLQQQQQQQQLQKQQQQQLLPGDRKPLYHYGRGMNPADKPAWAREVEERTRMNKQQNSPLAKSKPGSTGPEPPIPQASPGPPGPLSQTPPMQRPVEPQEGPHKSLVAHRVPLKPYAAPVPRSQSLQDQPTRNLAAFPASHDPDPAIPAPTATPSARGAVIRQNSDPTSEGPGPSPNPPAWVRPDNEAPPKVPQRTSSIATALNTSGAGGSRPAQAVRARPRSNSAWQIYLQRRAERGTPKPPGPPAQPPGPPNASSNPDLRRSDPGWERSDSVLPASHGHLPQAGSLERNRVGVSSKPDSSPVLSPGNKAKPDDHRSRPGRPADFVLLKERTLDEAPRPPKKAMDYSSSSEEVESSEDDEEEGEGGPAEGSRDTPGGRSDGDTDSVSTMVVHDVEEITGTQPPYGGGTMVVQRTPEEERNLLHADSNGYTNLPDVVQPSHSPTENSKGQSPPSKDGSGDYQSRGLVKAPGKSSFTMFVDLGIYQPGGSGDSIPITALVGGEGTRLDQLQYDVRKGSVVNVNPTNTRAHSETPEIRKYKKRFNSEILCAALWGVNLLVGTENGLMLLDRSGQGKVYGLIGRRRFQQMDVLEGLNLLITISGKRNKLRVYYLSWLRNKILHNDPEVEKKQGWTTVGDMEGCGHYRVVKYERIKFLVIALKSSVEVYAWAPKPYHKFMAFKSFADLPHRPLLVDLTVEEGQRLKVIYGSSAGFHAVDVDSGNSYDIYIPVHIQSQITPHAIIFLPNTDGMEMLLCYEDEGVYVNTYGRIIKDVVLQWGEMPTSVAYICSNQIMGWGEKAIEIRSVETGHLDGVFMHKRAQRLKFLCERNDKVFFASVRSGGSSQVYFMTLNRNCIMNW
Chain of Vascular endothelial growth factor receptor 1 (Homo sapiens) (P17948 whole entry): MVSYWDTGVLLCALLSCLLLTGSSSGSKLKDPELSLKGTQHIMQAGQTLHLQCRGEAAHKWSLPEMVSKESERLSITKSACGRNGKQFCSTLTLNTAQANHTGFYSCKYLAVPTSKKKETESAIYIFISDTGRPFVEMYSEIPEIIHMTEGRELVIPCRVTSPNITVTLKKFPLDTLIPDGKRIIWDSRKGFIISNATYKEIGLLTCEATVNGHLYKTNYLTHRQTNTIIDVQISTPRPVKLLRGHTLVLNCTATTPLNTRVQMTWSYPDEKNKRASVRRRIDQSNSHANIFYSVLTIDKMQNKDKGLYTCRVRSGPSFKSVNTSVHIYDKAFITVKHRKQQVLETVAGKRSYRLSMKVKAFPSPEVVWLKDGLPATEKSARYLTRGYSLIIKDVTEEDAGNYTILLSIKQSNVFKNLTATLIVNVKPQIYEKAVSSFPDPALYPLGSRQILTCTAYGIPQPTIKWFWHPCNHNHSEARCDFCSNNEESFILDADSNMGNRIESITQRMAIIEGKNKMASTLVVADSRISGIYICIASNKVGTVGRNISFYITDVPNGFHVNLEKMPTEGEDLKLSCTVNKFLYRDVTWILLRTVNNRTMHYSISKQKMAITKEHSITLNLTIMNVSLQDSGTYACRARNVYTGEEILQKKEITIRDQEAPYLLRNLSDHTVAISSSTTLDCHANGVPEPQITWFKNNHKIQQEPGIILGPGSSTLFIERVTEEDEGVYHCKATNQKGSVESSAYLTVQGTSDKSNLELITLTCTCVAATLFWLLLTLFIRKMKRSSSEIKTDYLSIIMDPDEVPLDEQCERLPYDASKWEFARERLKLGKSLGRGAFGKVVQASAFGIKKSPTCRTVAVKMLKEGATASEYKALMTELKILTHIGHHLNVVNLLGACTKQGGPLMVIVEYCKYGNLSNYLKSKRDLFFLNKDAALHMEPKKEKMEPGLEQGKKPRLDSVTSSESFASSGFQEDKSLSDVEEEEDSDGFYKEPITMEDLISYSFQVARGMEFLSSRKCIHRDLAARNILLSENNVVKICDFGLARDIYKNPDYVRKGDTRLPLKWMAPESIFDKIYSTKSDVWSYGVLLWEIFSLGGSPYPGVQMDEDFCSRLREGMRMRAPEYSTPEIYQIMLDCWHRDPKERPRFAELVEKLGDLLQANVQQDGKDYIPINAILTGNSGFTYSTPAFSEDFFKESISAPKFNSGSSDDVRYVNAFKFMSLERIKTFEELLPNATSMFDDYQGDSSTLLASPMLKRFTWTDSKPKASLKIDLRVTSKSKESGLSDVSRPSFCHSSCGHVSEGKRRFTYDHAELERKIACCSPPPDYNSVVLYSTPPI
Chain of Cyclin-dependent kinase 17 (Homo sapiens) (Q00537 whole entry, looked up): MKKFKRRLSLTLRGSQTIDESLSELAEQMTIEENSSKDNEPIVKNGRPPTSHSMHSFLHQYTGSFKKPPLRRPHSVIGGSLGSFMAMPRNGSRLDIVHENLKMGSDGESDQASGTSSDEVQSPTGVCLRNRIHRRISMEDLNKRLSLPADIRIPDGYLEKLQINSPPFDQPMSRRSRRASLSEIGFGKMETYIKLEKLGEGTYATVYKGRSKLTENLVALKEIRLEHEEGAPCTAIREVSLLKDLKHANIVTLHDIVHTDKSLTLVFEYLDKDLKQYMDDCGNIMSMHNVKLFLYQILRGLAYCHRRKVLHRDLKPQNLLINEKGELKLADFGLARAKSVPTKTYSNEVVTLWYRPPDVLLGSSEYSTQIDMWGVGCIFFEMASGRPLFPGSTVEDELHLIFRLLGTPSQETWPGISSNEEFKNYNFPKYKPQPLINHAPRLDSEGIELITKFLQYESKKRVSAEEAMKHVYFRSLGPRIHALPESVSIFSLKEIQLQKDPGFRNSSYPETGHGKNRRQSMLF
Chain of 5-hydroxytryptamine receptor 1D (Homo sapiens) (P28221 whole entry): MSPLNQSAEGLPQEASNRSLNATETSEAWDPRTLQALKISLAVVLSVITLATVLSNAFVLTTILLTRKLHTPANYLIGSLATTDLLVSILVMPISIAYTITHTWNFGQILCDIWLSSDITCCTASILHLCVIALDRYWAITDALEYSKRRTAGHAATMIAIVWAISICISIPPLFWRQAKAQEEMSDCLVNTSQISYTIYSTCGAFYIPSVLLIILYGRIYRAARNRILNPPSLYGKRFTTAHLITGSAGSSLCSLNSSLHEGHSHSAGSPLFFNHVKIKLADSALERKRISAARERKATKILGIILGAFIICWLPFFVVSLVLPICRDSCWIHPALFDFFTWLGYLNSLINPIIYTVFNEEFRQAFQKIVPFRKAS
Chain of Cannabinoid receptor 2 (Homo sapiens) (P34972 whole entry): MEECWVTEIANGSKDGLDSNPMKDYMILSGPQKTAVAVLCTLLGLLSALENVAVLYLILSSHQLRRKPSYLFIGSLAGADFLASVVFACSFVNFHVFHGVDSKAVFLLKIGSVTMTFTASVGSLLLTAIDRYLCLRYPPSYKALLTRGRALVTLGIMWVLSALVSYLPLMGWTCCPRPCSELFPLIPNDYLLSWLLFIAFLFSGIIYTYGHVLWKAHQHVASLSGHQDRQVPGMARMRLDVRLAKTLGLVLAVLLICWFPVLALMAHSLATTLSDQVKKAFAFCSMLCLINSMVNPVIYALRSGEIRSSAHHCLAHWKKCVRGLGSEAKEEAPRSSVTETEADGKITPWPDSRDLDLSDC

SMILES	inhibition [1] [%]	residual activity [2] [%]	residual activity [3] [%]	residual activity [4] [%]	residual activity [5] [%]	residual activity [6] [%]	residual activity [7] [%]	inhibition [8] [%]	residual activity [9] [%]	inhibition [10] [%]	residual activity [11] [%]	residual activity [12] [%]	residual activity [13] [%]	residual activity [14] [%]	residual activity [15] [%]	residual activity [16] [%]	inhibition [17] [%]	inhibition [18] [%]	residual activity [19] [%]	residual activity [20] [%]	further results
CNC(=O)Nc1ccc2c(c1)CC[C@@]21OC(=O)N(CC(=O)N(Cc2ccc(F)cc2)[C@@H](C)C(F)(F)F)C1=O [A-485]	18	100	96	96	100	92	94	2.39	100	67	84	90	95	93	100	88	12	-2	90	88	residual activity [21]: 80%; residual activity [22]: 86%; residual activity [23]: 73%; inhibition [24]: 21.1%; residual activity [25]: 95%; residual activity [26]: 84%; inhibition [27]: 95.6%; residual activity [28]: 89%; residual activity [29]: 93%; inhibition [30]: 10%; residual activity [31]: 88%
CNC(=O)Nc1ccc2c(c1)[C@@]1(CC2)OC(=O)N(CC(=O)N(Cc2ccc(F)cc2)[C@@H](C)C(F)(F)F)C1=O [A-486]	2.22	100	94	88	100	100	85	-2.77	100	4	97	55	89	100	100	92	-5	-7	100	85	residual activity [21]: 91%; residual activity [22]: 85%; residual activity [23]: 90%; inhibition [24]: 20.5%; residual activity [25]: 78%; residual activity [26]: 93%; inhibition [27]: 31%; residual activity [28]: 100%; residual activity [29]: 83%; inhibition [30]: 23%; residual activity [31]: 88%
